Results taken from US20130165489A1, “Small Molecule Modulators of HIV-1 Capsid Stability and Methods Thereof” (The Trustees of the University of Pennsylvania, priority 2010, published 2013).

Experiments:
[1] = test system: recombinant luciferase-expressing HIV-1 bearing the envelope glycoprotein of the HIV-1YU-2 strain; test: Single-round infection assay, HIV-1 with YU-2 envelope on Cf2Th-CCR5 cells; conditions: Cf2Th-CCR5 cells; YU-2 envelope
HIV-1NL4-3 CA = HIV-1NL4-3 CA (Human immunodeficiency virus type 1 group M subtype B, UniProt P12493); test: Surface plasmon resonance direct binding to HIV-1 CA; conditions: SPR
Description: Interaction analyses were performed on a Biacore 3000 optical biosensor (Biacore, Piscataway Township, NJ) with simultaneous monitoring of two flow cells Immobilization of the CA protein to CM7 sensor chips was performed following the standard amine coupling procedure according to the manufacturer's specifications. Briefly, carboxyl groups on the sensor chip surface were activated by injection of 50 μL of a solution containing 0.2 M EDC (1-ethyl-3-[3-dimethylamino-propyl]carbodiimide hydrochloride) and 0.05 M NHS(N-hydroxysuccinimide) at a flow rate of 5 μL min^−1. Next, the 50 μL of CA protein at a concentration of 6 μM in pH 5.0, 10 mM sodium acetate buffer was passed over the chip surface at 25° C. at a flow rate of 5 μL min^−1 Then, after unreacted protein had been washed out, excess active ester groups on the sensor surface were capped by the injection of 50 μL of 1 M ethanolamine (pH 8.0) at a flow rate of 5 μL min^−1. A reference surface with the nonspecific anti-gp120 antibody 17b (Thali et al., 1993, J. Virol. 67:3978-88) immobilized was generated at the same time under the same conditions and was used as background to correct nonspecific binding and for instrument and buffer artifacts.
Stock solutions of CMPD-E and CMPD-F were prepared by dissolving the compounds in 100% dimethyl sulfoxide (DMSO) to a final concentration of 10 mM. To prepare the sample for analysis, 30 μL of the compound stock solution was added to sample preparation buffer (25 mM Tris-HCl, 150 mM NaCl, pH 7.5) to a final volume of 1 mL and mixed thoroughly. Preparation of analyte in this manner ensured that the concentration of DMSO was matched with that of running buffer with 3% DMSO. Lower concentrations of each compound were then prepared by twofold serial dilutions into running buffer (25 mM Tris-HCl, 150 mM NaCl, 3% DMSO, pH 7.5). These compound dilutions were then injected over the control and CA surfaces at a flow rate of 50 μL min^−1, for a 2-min association phase, followed by a 5-min dissociation phase. […]

CANTD = CANTD (Human immunodeficiency virus type 1 group M subtype B, UniProt P12493); conditions: binding to CANTD; read-out: equilibrium dissociation constant (KD); cited from earlier work
producer cells (293T) = assay type: cell-based, human
Excerpt: Moreover, these compounds appeared to be working at different stages of the viral life-cycle—one at an early post-entry event (CMPD-A) and the other at an assembly or post-integration event in HIV-1 replication (CMPD-D).

[2] = test system: single-round competent HIV-1NL4-3 virus; test: Single-round assay, production of infectious virus from compound-treated producer cells

Question: Which “activity in the single-round infection assay” value [1] does the source give for COC(=O)c1ccc(-c2nc(-c3ccc4oc5ccc(-c6nc(-c7ccc(C(=O)OC)cc7)[nH]c6-c6ccccc6)cc5c4c3)c(-c3ccccc3)[nH]2)cc1 [CMPD-B, dimethyl 4,4′-(4,4′-(dibenzo[b,d]furan-2,8-diyl)bis(5-phenyl-1H-imidazole-4,2-diyl))dibenzoate] here?
Answer: Its value is “lost all activity”.

Question: For CC1(C)CC(NC(=O)C(=O)Nc2ccc(Cl)cc2)CC(C)(C)N1 [CMPD-F, N1-(4-chlorophenyl)-N2-(2,2,6,6-tetramethylpiperidin-4-yl)oxalamide, reference compound], which “interaction with sensor-chip immobilized HIV-1 CA” value (HIV-1NL4-3 CA) is on record?
Answer: The value was “displayed no such interaction”.

Question: With O=C(O)c1ccc(-c2nc(-c3ccccc3)c(-c3ccc4oc5ccccc5c4c3)[nH]2)cc1 [CMPD-C, 4-(5-(dibenzo[b,d]furan-2-yl)-4-phenyl-1H-imidazol-2-yl)benzoic acid] as the compound, how does the “activity in the single-round infection assay” value [1] read?
Answer: Its value is “retained the activity of the parental molecule”.

Question: For Cc1ccc(NC(=O)NCCSCc2ccc(CN(C)C)o2)cc1Cl [CAP-1, N-(3-chloro-4-methylphenyl)-N′-[2-[([5-[(dimethylamino)-methyl]-2-furyl]-methyl)-sulfanyl]ethyl]urea], which Kd (CANTD) is on record?
Answer: The Kd was roughly 800 µM.

Question: What does the source list for Cc1ccc(C(C(=O)NC2CCCCC2)N(Cc2ccccc2Cl)C(=O)c2snc(C(=O)NC3CCCCC3)c2N)o1 (stereo not shown) [CMPD-D, 4-amino-N5-(2-chlorobenzyl)-N3-cyclohexyl-N5-(2-(cyclohexylamino)-1-(5-methylfuran-2-yl)-2-oxoethyl)isothiazole-3,5-dicarboxamide]?
Answer: LDH release versus untreated cells (producer cells (293T)): Neither CMPD-A nor CMPD-D promoted LDH release; activity in the single-round infection assay [1]: not to have any effect on HIV-1 infection; antiretroviral activity, assembly or post-integration event [2]: significant antiretroviral activity
